Common to all, as to experiment: cell-based
One assay addresses hNav1.7 (Homo sapiens, UniProt Q15858). In kind it is cell-based.
In a further assay the target is hNav1.5 (Homo sapiens, UniProt Q14524).
In the next assay the target is hNav1.3 (Homo sapiens, UniProt Q9NY46). As to conditions: IonWorks Quattro, use-dependent protocol, hNav1.3; read-out: IWQ Use Nav1.3. (In patch-clamp work, channel activity is measured electrically.)
Where [1] appears, read: IonWorks Quattro, use-dependent protocol, hNav1.7, read-out: IWQ Use Nav1.7.
[2] abbreviates: IonWorks Quattro, use-dependent protocol, hNav1.5, read-out: IWQ Use Nav1.5.

Like-named read-outs stand apart in the source and are kept apart here.

Chain of hNav1.5 (Q14524 whole entry, looked up): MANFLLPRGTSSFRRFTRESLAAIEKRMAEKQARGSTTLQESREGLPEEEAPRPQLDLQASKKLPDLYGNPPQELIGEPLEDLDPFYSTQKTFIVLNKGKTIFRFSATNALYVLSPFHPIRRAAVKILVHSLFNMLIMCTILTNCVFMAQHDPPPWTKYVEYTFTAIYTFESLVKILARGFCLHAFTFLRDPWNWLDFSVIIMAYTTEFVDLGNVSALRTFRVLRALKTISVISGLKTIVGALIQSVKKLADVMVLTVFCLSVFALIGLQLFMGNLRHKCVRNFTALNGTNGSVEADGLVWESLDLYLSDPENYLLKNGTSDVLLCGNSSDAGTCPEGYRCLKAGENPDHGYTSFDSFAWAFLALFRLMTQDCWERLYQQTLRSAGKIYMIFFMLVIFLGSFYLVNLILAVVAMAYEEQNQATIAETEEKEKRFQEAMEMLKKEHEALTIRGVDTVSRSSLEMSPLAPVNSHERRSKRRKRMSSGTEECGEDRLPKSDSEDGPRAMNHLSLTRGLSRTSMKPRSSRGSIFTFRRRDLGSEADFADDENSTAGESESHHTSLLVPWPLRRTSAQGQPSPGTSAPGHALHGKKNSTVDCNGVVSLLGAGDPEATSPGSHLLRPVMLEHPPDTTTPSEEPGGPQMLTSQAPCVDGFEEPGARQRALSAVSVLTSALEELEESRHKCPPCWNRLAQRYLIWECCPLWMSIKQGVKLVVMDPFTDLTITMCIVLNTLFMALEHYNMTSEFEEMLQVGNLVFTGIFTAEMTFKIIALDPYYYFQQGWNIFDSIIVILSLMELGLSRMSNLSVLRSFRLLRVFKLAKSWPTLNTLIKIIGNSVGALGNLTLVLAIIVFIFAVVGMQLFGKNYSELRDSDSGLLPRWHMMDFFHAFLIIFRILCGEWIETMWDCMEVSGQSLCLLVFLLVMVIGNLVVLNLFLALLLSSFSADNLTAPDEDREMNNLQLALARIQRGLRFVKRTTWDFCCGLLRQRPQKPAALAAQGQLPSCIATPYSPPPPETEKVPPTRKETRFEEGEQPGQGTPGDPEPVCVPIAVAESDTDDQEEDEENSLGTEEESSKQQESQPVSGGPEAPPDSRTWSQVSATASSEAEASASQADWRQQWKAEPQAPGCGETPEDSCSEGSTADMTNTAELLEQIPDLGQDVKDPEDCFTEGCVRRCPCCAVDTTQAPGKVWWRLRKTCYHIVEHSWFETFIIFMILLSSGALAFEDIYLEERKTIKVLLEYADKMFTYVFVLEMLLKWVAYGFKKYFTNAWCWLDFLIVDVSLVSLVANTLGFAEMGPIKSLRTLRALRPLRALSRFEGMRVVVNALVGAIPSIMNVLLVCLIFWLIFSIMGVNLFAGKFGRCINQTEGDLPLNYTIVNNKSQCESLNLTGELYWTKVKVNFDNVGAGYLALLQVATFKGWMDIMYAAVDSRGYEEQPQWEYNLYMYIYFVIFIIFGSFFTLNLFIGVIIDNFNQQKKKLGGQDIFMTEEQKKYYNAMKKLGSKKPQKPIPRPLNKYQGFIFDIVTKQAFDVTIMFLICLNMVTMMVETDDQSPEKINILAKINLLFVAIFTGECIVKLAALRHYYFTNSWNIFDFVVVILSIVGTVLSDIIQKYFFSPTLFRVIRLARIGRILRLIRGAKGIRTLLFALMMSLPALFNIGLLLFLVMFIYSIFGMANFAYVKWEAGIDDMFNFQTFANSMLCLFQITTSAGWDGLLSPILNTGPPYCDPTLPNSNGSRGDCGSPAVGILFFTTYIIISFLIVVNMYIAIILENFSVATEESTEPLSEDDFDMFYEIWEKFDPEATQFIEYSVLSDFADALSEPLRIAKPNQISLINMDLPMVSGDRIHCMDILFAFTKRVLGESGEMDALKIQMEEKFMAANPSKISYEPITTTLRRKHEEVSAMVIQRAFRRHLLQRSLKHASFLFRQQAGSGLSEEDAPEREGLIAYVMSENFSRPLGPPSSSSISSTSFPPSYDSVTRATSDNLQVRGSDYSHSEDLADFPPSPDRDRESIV
Chain of hNav1.3 (Q9NY46 whole entry, looked up): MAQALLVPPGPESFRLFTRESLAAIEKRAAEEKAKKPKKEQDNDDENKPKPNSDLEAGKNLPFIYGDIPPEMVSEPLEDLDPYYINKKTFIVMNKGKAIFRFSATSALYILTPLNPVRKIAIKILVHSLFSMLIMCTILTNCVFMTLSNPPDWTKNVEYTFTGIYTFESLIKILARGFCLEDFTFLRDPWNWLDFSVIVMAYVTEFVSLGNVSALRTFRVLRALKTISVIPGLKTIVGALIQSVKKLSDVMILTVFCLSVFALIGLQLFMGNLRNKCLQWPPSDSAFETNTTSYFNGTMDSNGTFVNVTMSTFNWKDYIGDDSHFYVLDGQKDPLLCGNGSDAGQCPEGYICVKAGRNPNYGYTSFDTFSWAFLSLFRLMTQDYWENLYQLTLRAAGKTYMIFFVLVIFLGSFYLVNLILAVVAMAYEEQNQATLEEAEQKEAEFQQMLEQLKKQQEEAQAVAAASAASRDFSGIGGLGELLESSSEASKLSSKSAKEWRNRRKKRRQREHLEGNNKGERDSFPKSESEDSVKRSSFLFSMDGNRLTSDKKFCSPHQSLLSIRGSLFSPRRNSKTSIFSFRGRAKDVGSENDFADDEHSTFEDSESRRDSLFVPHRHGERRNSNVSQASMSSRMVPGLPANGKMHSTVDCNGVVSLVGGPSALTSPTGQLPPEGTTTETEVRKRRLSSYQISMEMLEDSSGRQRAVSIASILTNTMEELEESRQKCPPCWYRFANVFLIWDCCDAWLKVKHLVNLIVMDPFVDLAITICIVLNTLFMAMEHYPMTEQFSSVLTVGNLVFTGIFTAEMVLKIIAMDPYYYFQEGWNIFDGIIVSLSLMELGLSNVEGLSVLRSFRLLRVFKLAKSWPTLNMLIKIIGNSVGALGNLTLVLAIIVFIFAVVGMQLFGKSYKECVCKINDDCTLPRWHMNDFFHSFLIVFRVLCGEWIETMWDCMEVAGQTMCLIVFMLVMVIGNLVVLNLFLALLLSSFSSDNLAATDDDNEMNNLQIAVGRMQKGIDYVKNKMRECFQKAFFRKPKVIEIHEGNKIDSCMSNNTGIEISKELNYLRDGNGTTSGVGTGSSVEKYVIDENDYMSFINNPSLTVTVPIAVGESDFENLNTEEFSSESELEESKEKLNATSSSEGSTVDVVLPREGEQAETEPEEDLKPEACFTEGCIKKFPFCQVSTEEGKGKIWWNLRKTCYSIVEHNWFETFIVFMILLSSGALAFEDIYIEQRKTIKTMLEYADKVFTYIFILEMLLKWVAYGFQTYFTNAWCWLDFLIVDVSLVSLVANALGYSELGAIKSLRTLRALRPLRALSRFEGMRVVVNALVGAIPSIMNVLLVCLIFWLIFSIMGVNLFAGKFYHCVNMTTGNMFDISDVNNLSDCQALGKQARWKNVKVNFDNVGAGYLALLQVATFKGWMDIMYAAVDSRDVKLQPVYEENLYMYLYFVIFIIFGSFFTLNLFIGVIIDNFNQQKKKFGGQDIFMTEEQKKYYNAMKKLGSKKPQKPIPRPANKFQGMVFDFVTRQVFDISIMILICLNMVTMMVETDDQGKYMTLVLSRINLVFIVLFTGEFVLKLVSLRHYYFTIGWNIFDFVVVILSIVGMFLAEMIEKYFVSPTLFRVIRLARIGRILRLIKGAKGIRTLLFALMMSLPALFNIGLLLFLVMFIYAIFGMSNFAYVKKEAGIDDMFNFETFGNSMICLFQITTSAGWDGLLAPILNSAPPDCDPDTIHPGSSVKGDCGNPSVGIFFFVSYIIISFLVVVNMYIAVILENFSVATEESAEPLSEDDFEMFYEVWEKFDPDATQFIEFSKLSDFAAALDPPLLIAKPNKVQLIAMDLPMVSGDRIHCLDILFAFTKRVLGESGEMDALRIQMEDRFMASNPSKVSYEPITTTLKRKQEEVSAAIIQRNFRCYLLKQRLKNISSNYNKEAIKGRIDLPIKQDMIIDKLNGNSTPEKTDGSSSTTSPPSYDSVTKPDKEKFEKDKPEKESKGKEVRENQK

Take `CC[C@H](C)[C@@H]1NC(=O)[C@@H]2CSSC[C@@H]3NC(=O)[C@H](C(C)C)NC(=O)[C@H](CC(C)C)NC(=O)[C@H](CC(N)=O)NC(=O)[C@@H]4CCCN4C(=O)[C@H](CCCNC(=N)N)NC(=O)[C@H](CSSC[C@H](NC(=O)[C@@H](N)CC(=O)O)C(=O)N[C@@H](CC(C)C)C(=O)NCC(=O)N[C@@H](CC4CCCCC4)C(=O)N[C@@H](CC(C)C)C(=O)N[C@@H](CCCNC(=N)N)C(=O)N[C@@H](CCCCN)C(=O)N2)NC(=O)[C@H](CSSC[C@@H](C(=O)N[C@@H](CCCCN)C(=O)N[C@@H](Cc2ccc(O)cc2)C(=O)N[C@H](C(=O)N[C@@H](Cc2ccccc2)C(N)=O)C(C)C)NC(=O)[C@H](Cc2c[nH]c4ccccc24)NC(=O)[C@H](CCCCN)NC(=O)[C@H](Cc2c[nH]cn2)NC(=O)[C@H]([C@@H](C)O)NC(=O)[C@H](CCCNC(=N)N)NC(=O)[C@H](CO)NC3=O)NC(=O)[C@H](CCCCN)NC(=O)[C@H](CC(=O)O)NC(=O)[C@H](CC(N)=O)NC(=O)[C@H](CC(=O)O)NC(=O)[C@@H]2CCCN2C1=O` [compound 681]: the results for the IC50 at hNav1.7 (setting [1]), at hNav1.5 (setting [2]) and on hNav1.3 were 23 nM, above 5000 nM and 79 nM, respectively.

In the case of `CC[C@H](C)[C@@H]1NC(=O)[C@@H]2CSSC[C@@H]3NC(=O)[C@H](C(C)C)NC(=O)[C@H](CC(C)C)NC(=O)[C@H](CC(N)=O)NC(=O)[C@@H]4CCCN4C(=O)[C@H](CCCNC(=N)N)NC(=O)[C@H](CSSC[C@H](NC(=O)[C@@H](N)CC(=O)O)C(=O)N[C@@H](CC(C)C)C(=O)NCC(=O)N[C@@H](Cc4cccs4)C(=O)N[C@@H](CCSC)C(=O)N[C@@H](CCCNC(=N)N)C(=O)N[C@@H](CCCCN)C(=O)N2)NC(=O)[C@H](CSSC[C@@H](C(=O)N[C@@H](CCCCN)C(=O)N[C@@H](Cc2ccc(O)cc2)C(=O)N[C@H](C(=O)N[C@@H](Cc2ccccc2)C(N)=O)C(C)C)NC(=O)[C@H](Cc2c[nH]c4ccccc24)NC(=O)[C@H](CCCCN)NC(=O)[C@H](Cc2c[nH]cn2)NC(=O)[C@H]([C@@H](C)O)NC(=O)[C@H](CCCNC(=N)N)NC(=O)[C@H](CO)NC3=O)NC(=O)[C@H](CCCCN)NC(=O)[C@H](CC(=O)O)NC(=O)[C@H](CC(N)=O)NC(=O)[C@H](CC(=O)O)NC(=O)[C@@H]2CCCN2C1=O` [compound 682], the IC50 at hNav1.7 (setting [1]) was 110 nM; on hNav1.5 (setting [2]), above 5000 nM; on hNav1.3 it was 280 nM.

For the compound `CC[C@H](C)[C@@H]1NC(=O)[C@@H]2CSSC[C@@H]3NC(=O)[C@H](C(C)C)NC(=O)[C@H](CC(C)C)NC(=O)[C@H](CC(N)=O)NC(=O)[C@@H]4CCCN4C(=O)[C@H](CCCNC(=N)N)NC(=O)[C@H](CSSC[C@H](NC(=O)[C@@H](N)CC(=O)O)C(=O)N[C@@H](CC(C)C)C(=O)NCC(=O)N[C@@H](C4CCCC4)C(=O)N[C@@H](CCSC)C(=O)N[C@@H](CCCNC(=N)N)C(=O)N[C@@H](CCCCN)C(=O)N2)NC(=O)[C@H](CSSC[C@@H](C(=O)N[C@@H](CCCCN)C(=O)N[C@@H](Cc2ccc(O)cc2)C(=O)N[C@H](C(=O)N[C@@H](Cc2ccccc2)C(N)=O)C(C)C)NC(=O)[C@H](Cc2c[nH]c4ccccc24)NC(=O)[C@H](CCCCN)NC(=O)[C@H](Cc2cnc[nH]2)NC(=O)[C@H]([C@@H](C)O)NC(=O)[C@H](CCCNC(=N)N)NC(=O)[C@H](CO)NC3=O)NC(=O)[C@H](CCCCN)NC(=O)[C@H](CC(=O)O)NC(=O)[C@H](CC(N)=O)NC(=O)[C@H](CC(=O)O)NC(=O)[C@@H]2CCCN2C1=O` [compound 683], the IC50 was 230 nM at hNav1.7 (setting [1]), above 5000 nM on hNav1.5 (IWQ Use Nav1.5) and 630 nM on hNav1.3.

For the compound `CC[C@H](C)[C@@H]1NC(=O)[C@@H]2CSSC[C@@H]3NC(=O)[C@H](C(C)C)NC(=O)[C@H](CC(C)C)NC(=O)[C@H](CC(N)=O)NC(=O)[C@@H]4CCCN4C(=O)[C@H](CCCNC(=N)N)NC(=O)[C@H](CSSC[C@H](NC(=O)[C@@H](N)CC(=O)O)C(=O)N[C@@H](CC(C)C)C(=O)NCC(=O)N[C@@H](C4CCCCC4)C(=O)N[C@@H](CCSC)C(=O)N[C@@H](CCCNC(=N)N)C(=O)N[C@@H](CCCCN)C(=O)N2)NC(=O)[C@H](CSSC[C@@H](C(=O)N[C@@H](CCCCN)C(=O)N[C@@H](Cc2ccc(O)cc2)C(=O)N[C@H](C(=O)N[C@@H](Cc2ccccc2)C(N)=O)C(C)C)NC(=O)[C@H](Cc2c[nH]c4ccccc24)NC(=O)[C@H](CCCCN)NC(=O)[C@H](Cc2cnc[nH]2)NC(=O)[C@H]([C@@H](C)O)NC(=O)[C@H](CCCNC(=N)N)NC(=O)[C@H](CO)NC3=O)NC(=O)[C@H](CCCCN)NC(=O)[C@H](CC(=O)O)NC(=O)[C@H](CC(N)=O)NC(=O)[C@H](CC(=O)O)NC(=O)[C@@H]2CCCN2C1=O` [compound 684], the IC50 on hNav1.7 (setting [1]) was 130 nM; at hNav1.5 (setting [2]), above 5000 nM; at hNav1.3, 360 nM.

`CC[C@H](C)[C@@H]1NC(=O)[C@@H]2CSSC[C@@H]3NC(=O)[C@H](C(C)C)NC(=O)[C@H](CC(C)C)NC(=O)[C@H](CC(N)=O)NC(=O)[C@@H]4CCCN4C(=O)[C@H](CCCNC(=N)N)NC(=O)[C@H](CSSC[C@H](NC(=O)[C@@H](N)CC(=O)O)C(=O)N[C@@H](CC(C)C)C(=O)NCC(=O)N[C@@H](Cc4ccc(C(=O)c5ccccc5)cc4)C(=O)N[C@@H](CCSC)C(=O)N[C@@H](CCCNC(=N)N)C(=O)N[C@@H](CCCCN)C(=O)N2)NC(=O)[C@H](CSSC[C@@H](C(=O)N[C@@H](CCCCN)C(=O)N[C@@H](Cc2ccc(O)cc2)C(=O)N[C@H](C(=O)N[C@@H](Cc2ccccc2)C(N)=O)C(C)C)NC(=O)[C@H](Cc2c[nH]c4ccccc24)NC(=O)[C@H](CCCCN)NC(=O)[C@H](Cc2c[nH]cn2)NC(=O)[C@H]([C@@H](C)O)NC(=O)[C@H](CCCNC(=N)N)NC(=O)[C@H](CO)NC3=O)NC(=O)[C@H](CCCCN)NC(=O)[C@H](CC(=O)O)NC(=O)[C@H](CC(N)=O)NC(=O)[C@H](CC(=O)O)NC(=O)[C@@H]2CCCN2C1=O` [compound 685]: the IC50 at hNav1.7 (setting [1]) is 680 nM; on hNav1.5 (setting [2]), above 5000 nM; on hNav1.3, 150 nM.

`CC[C@H](C)[C@@H]1NC(=O)[C@@H]2CSSC[C@@H]3NC(=O)[C@H](C(C)C)NC(=O)[C@H](CC(C)C)NC(=O)[C@H](CC(N)=O)NC(=O)[C@@H]4CCCN4C(=O)[C@H](CCCNC(=N)N)NC(=O)[C@H](CSSC[C@H](NC(=O)[C@@H](N)CC(=O)O)C(=O)N[C@@H](CC(C)C)C(=O)NCC(=O)N[C@@H](Cc4ccc(C)cc4)C(=O)N[C@@H](CCSC)C(=O)N[C@@H](CCCNC(=N)N)C(=O)N[C@@H](CCCCN)C(=O)N2)NC(=O)[C@H](CSSC[C@@H](C(=O)N[C@@H](CCCCN)C(=O)N[C@@H](Cc2ccc(O)cc2)C(=O)N[C@H](C(=O)N[C@@H](Cc2ccccc2)C(N)=O)C(C)C)NC(=O)[C@H](Cc2c[nH]c4ccccc24)NC(=O)[C@H](CCCCN)NC(=O)[C@H](Cc2c[nH]cn2)NC(=O)[C@H]([C@@H](C)O)NC(=O)[C@H](CCCNC(=N)N)NC(=O)[C@H](CO)NC3=O)NC(=O)[C@H](CCCCN)NC(=O)[C@H](CC(=O)O)NC(=O)[C@H](CC(N)=O)NC(=O)[C@H](CC(=O)O)NC(=O)[C@@H]2CCCN2C1=O` [compound 686]: the IC50 on hNav1.7 (setting [1]) was 490 nM; against hNav1.5 (IWQ Use Nav1.5), above 5000 nM; at hNav1.3, 180 nM.

Take `CC[C@H](C)[C@@H]1NC(=O)[C@@H]2CSSC[C@@H]3NC(=O)[C@H](C(C)C)NC(=O)[C@H](CC(C)C)NC(=O)[C@H](CC(N)=O)NC(=O)[C@@H]4CCCN4C(=O)[C@H](CCCNC(=N)N)NC(=O)[C@H](CSSC[C@H](NC(=O)[C@@H](N)CC(=O)O)C(=O)N[C@@H](CC(C)C)C(=O)NCC(=O)N[C@@H](Cc4ccc(C(C)(C)C)cc4)C(=O)N[C@@H](CCSC)C(=O)N[C@@H](CCCNC(=N)N)C(=O)N[C@@H](CCCCN)C(=O)N2)NC(=O)[C@H](CSSC[C@@H](C(=O)N[C@@H](CCCCN)C(=O)N[C@@H](Cc2ccc(O)cc2)C(=O)N[C@H](C(=O)N[C@@H](Cc2ccccc2)C(N)=O)C(C)C)NC(=O)[C@H](Cc2c[nH]c4ccccc24)NC(=O)[C@H](CCCCN)NC(=O)[C@H](Cc2c[nH]cn2)NC(=O)[C@H]([C@@H](C)O)NC(=O)[C@H](CCCNC(=N)N)NC(=O)[C@H](CO)NC3=O)NC(=O)[C@H](CCCCN)NC(=O)[C@H](CC(=O)O)NC(=O)[C@H](CC(N)=O)NC(=O)[C@H](CC(=O)O)NC(=O)[C@@H]2CCCN2C1=O` [compound 687]: the results for the IC50 at hNav1.7 (setting [1]), against hNav1.5 (IWQ Use Nav1.5) and at hNav1.3 were 270 nM, above 5000 nM and 130 nM, respectively.

In the case of `CC[C@H](C)[C@@H]1NC(=O)[C@@H]2CSSC[C@@H]3NC(=O)[C@H](C(C)C)NC(=O)[C@H](CC(C)C)NC(=O)[C@H](CC(N)=O)NC(=O)[C@@H]4CCCN4C(=O)[C@H](CCCNC(=N)N)NC(=O)[C@H](CSSC[C@H](NC(=O)[C@@H](N)CC(=O)O)C(=O)N[C@@H](CC(C)C)C(=O)NCC(=O)N(C)[C@@H](CC(C)C)C(=O)N[C@@H](CCSC)C(=O)N[C@@H](CCCNC(=N)N)C(=O)N[C@@H](CCCCN)C(=O)N2)NC(=O)[C@H](CSSC[C@@H](C(=O)N[C@@H](CCCCN)C(=O)N[C@@H](Cc2ccc(O)cc2)C(=O)N[C@H](C(=O)N[C@@H](Cc2ccccc2)C(N)=O)C(C)C)NC(=O)[C@H](Cc2c[nH]c4ccccc24)NC(=O)[C@H](CCCCN)NC(=O)[C@H](Cc2cnc[nH]2)NC(=O)[C@H]([C@@H](C)O)NC(=O)[C@H](CCCNC(=N)N)NC(=O)[C@H](CO)NC3=O)NC(=O)[C@H](CCCCN)NC(=O)[C@H](CC(=O)O)NC(=O)[C@H](CC(N)=O)NC(=O)[C@H](CC(=O)O)NC(=O)[C@@H]2CCCN2C1=O` [compound 688], the IC50 was 290 nM on hNav1.7, above 5000 nM against hNav1.5 (IWQ Use Nav1.5) and 730 nM on hNav1.3.

(Values after patent US9340590B2 (priority 2011, dated 2016).)
